# Columns and labels:
# [1] = test system: rat primary hippocampal neurons; experiment: Neurotoxic effect of Aβ1-42 assemblies, MTT viability; format: cell-based; conditions: 20 hr
# Procedure: (§1) Viability of cells was measured by MTT assay. MTT (3-(4,5-Dimethylthiazol-2-yl)-2,5-diphenyltetrazolium bromide) is a tetrazolium salt that is cleaved to formazan by the succinate dehydrogenase, which is only active in viable cells. After solubilization of the formazan, the amount of dye can be quantified with a microplate reader at 570 nm along with a reference of 630 nm. For MTT assay, 5×104 primary rat hippocampal neurons from 18-day-old embryonic Sprague-Dawley rat brains were plated on each well of 24-well plates coated with poly-D-lysine. After treatment, the cells were washed with 1×PBS and were incubated with 200 μl of 1 mg/ml MTT solution (Sigma, USA) at 37° C. for 2 hr. Then the MTT-solution was removed and the cells were lysed with 200 μl isopropanol containing 0.04 M HCl and 160 mM NaOH for 10 min. Finally, the reading was done at 570 nm and 630 nm. All the samples were done in triplicates and the data was represented as the percentage of control.
# To assess the neurotoxic effect of different sized oligomers, rat primary hippocampal neurons were treated with variable concentrations of these Aβ1-42 species for 20 hr. Viability of the treated cells was compared to untreated cells using the MTT assay.
# [2] = test system: primary rat hippocampal neurons; experiment: Neuroprotection against ASPD induced toxicity, MTT, primary neurons; format: cell-based
# Procedure: as §1
# All studies used 50 nM ASPDs. The viability of the cells were measured by the MTT assay.
# [3] = test system: differentiated human SH-SY5Y cells; experiment: Neuroprotection against ASPD, MTT, SH-SY5Y cells; format: cell-based; conditions: ASPD alone
# PKC-ε [4] = experiment: PKC-ε level in primary neurons (immunofluorescence, Western Blot); format: cell-based, rat; conditions: primary neurons, 20 hr ASPD
# Procedure: (§2) Cells were harvested in homogenizing buffer containing 10 mM Tris-Cl (pH 7.4), 1 mM PMSF (phenylmethylsulfonyl fluoride), 1 mM EGTA, 1 mM EDTA, 50 mM NaF, and 20 μM leupeptin and were lysed by sonication. The homogenate was centrifuged at 100,000×g for 15 min at 4° C. to obtain the cytosolic fraction (supernatant) and membrane (pellet). The pellet was resuspended in the homogenizing buffer by sonication. Protein concentration was measured using the Coomassie Plus (Bradford) Protein Assay kit (Pierce, USA). Following quantification, 20 μg of protein from each sample was subjected to SDS-PAGE analysis in 4-20% gradient Tris-Glycine gel (Invitrogen, USA). The separated protein was then transferred to nitrocellulose membrane. The membrane was blocked with BSA at room temperature for 15 min and was incubated with primary antibody over night at 4° C. After the incubation, it was washed three times with TBS-T (Tris Buffered saline-Tween 20) and further incubated with alkaline phosphatase conjugated secondary antibody (Jackson Immunoresearch Laboratories, USA) at 1:10,000 dilution for 45 min. The membrane was finally washed three times with TBS-T and developed using the 1-step NBT-BCIP substrate (Pierce, USA). Western Blot was imaged in the ImageQuant RT-ECL (GE Life Sciences, Piscataway, N.J.) and densitometric quantification was performed using the IMAL software (Blanchette Rockefeller Neurosciences Institute, Morgantown, W. Va.). For translocation assays, PKC activation was represented as the percentage of total protein in the membrane (membrane/cytosol+membrane).
# Cells were grown in two chambered slides (Nunc, USA) at low density. For immunofluorescence staining, the cells were washed with PBS (pH 7.4) and fixed with 4% paraformaldehyde for 4 min. Following fixation, the cells were blocked and permeabilized with 5% serum and 0.3% Triton X 100 in 1×PBS for 30 min. […] Six individual fields at 63× oil lens magnification were analyzed for the mean fluorescence intensity (MFI) in each channel. […]
# PKC-ε [5] = experiment: PKC-ε translocation to membrane in SH-SY5Y cells (Western blot); format: cell-based, human; conditions: ASPD; ADDL at 20-fold higher concentrations
# Procedure: as §2
# Equal amounts of proteins were loaded in each lane (20 μg) for both the cytosol and membrane fractions. Activation of PKC was calculated as the percentage of total PKC in the membrane (membrane/cytosol+membrane).
# PKC-ε [6] = experiment: PKC-ε mRNA by RT-PCR in primary rat hippocampal neurons; format: cell-based; conditions: controls and ASPD-treated cells
# Procedure: RNA was isolated from the cells using Trizol reagent (Invitrogen, USA) following the manufacturer's protocol. Briefly, 5 μg of total RNA was reverse transcribed using oligo (dT) and Superscript III (Invitrogen, USA) at 50° C. for 1 hr. Two μl of the cDNA product was amplified using primers for PKC-ε (Forward Primer—[…], Reverse primer—[…]), and β-tubulin (Forward Primer—[…], Reverse primer—[…]) (Origene, Rockville, Md.) for 25 cycles following standard PCR protocols and 55° C. annealing temperature. The PCR amplicons were analyzed in an E-Gel (Invitrogen, USA). The gel image was documented using a Fuji Image gel scanner (FLA-9000, Fuji Film) and densitometric quantification was performed using the IMAL software (Blanchette Rockefeller Neurosciences Institute, Morgantown, W. Va.). Data were represented as normalized ratio of PKC-ε OD (Optical Density) against β-tubulin OD for three independent experiments.
# Primary neurons were treated with ASPD and/or DCPLA-ME. PKC-ε mRNA was quantified by RT-PCR as described above. RNA prepared from control and treated cultured primary rat hippocampal neurons were isolated and reverse transcribed. Individual cDNA was amplified for PKC-ε and β-actin. PKC-ε expression was normalized to β-actin.
# [7] = test system: rat hippocampal primary neurons; experiment: Synaptic marker immunofluorescence in rat hippocampal primary neurons; format: cell-based
# Procedure: Cells were grown in two chambered slides (Nunc, USA) at low density. For immunofluorescence staining, the cells were washed with PBS (pH 7.4) and fixed with 4% paraformaldehyde for 4 min. Following fixation, the cells were blocked and permeabilized with 5% serum and 0.3% Triton X 100 in 1×PBS for 30 min. The cells were washed three times with 1×PBS and incubated with primary antibodies for 1 hr at 1:100 dilution. The incubation slides were then washed again three times in 1×PBS and were incubated with the FITC anti-rabbit IgG and Rhodamine anti-mouse IgG for 1 hr at 1:400 dilution. The cells were further washed and treated with DAPI (4′,6-diamidino-2′-phenylindole, dihydrochloride) (Thermo Scientific, USA) to stain the nucleus. Finally, the slides were washed and mounted in Pro Long Gold antifade mounting solution (Invitrogen, USA) and were viewed under the LSM 710 Meta confocal microscope (Zeiss) at 350 nm, 490 nm, and 540 nm excitation and 470 nm, 525 nm, and 625 nm emission for DAPI, FITC, and Rhodamine respectively. Six individual fields at 63× oil lens magnification were analyzed for the mean fluorescence intensity (MFI) in each channel. The co-localization correlation generated by the ZEN software (Zeiss).
# To estimate the synaptic damage caused by the ASPDs on primary hippocampal neurons, the expression of synaptophysin (a presynaptic marker) and PSD-95 (a postsynaptic marker) was measured by immunofluorescence staining. […] Following a 20 hr incubation period, the cells were stained for nucleus, PSD-95, and synaptophysin. Expression levels were calculated as the change of percentage in mean fluorescence intensity compared to untreated cells.
# Primary neurons, treated and untreated, were immunostained for MAP-2, synaptophysin, and PSD-95 to determine the synaptic integrity. […] Following a 20 hr incubation period, the cells were stained for MAP-2, PSD-95, and synaptophysin as described above.
# synaptophysin = experiment: Synaptophysin Western Blot in primary rat hippocampal neurons; format: cell-based; conditions: ASPD
# Procedure: as §2
# [8] = 50 nM ASPD alone (ASPD) or with 100 nM DCPLA-ME, 20 hr
# [9] = 50 nM ASPD alone (ASPD) or with RA and Bryostatin-1, 20 hr
substance,measurement,setting,value
"ASPD: amylospheroids, Aβ1-42 assemblies retained by a 100 kDa filter",Viability of primary neuron (Mean ± SEM),[1]; 0.5 nM,95.12 ± 0.733 % of control
same,Viability of primary neuron (Mean ± SEM),[1]; 1 nM,89.64 ± 5.99 % of control
same,Viability of primary neuron (Mean ± SEM),[1]; 2 nM,87.75 ± 0.94 % of control
same,Viability of primary neuron (Mean ± SEM),[1]; 5 nM,70.95 ± 1.89 % of control
same,Viability of primary neuron (Mean ± SEM),[1]; 10 nM,68.68 ± 0.84 % of control
same,Viability of primary neuron (Mean ± SEM),[1]; 50 nM,57.55 ± 3.35 % of control
same,viability of neurons,[1]; 50 nM,57.1±4.9%
same,Viability of primary neuron (Mean ± SEM),[1]; 500 nM,52.94 ± 3.75 % of control
same,viability of primary neurons,"[2]; 50 nM ASPD alone, 20 hr",57.6±1.6%
same,viability (Example 25),"[2]; 50 nM ASPDs alone (ASPD) or with the treatment named, 24 hr",57.61%±1.59
same,viability compared to the untreated cells,[3],77.15±0.49%
same,PKC-ε immunofluorescence level compared to control,PKC-ε [4],60.81±5.85%
same,PKC-ε membrane translocation,PKC-ε [5],69.98±3.27%
same,reduction of PKC-ε translocation,PKC-ε [5],46%
same,PKC-ε transcript levels (in words),PKC-ε [6],did not change PKC-ε mRNA significantly
same,MAP-2 expression (mean fluorescence intensity),[7]; [8],40.7±6.2%
same,PSD-95 expression (mean fluorescence intensity),[7]; [8],67.63±7.24%
same,synaptophysin expression (mean fluorescence intensity),[7]; [8],63.3±3.8%
same,Mean fluorescence intensity of PSD-95,[7]; [9],8.16±1.21
same,Mean fluorescence intensity of synaptophysin,[7]; [9],9.74±2.5
same,decrease of PSD-95 expression,"[7]; 50 nM ASPD, 20 hr",42%
same,decrease in synaptophysin intensity,"[7]; 50 nM ASPDs, 1 μM ADDLs, 20 hr",40%
same,synaptophysin intensity compared to the control,"[7]; 50 nM ASPDs, 1 μM ADDLs, 20 hr",62.45±6.74%
same,decrease of synaptophysin expression by Western Blot,synaptophysin,26%
same,synaptophysin expression by Western Blot,synaptophysin,73.30%±3.319
